The target of assay [1] is T1, TGF-beta receptor type-1 (Mus musculus, UniProt Q64729).
T1 sequence (Q64729 whole entry): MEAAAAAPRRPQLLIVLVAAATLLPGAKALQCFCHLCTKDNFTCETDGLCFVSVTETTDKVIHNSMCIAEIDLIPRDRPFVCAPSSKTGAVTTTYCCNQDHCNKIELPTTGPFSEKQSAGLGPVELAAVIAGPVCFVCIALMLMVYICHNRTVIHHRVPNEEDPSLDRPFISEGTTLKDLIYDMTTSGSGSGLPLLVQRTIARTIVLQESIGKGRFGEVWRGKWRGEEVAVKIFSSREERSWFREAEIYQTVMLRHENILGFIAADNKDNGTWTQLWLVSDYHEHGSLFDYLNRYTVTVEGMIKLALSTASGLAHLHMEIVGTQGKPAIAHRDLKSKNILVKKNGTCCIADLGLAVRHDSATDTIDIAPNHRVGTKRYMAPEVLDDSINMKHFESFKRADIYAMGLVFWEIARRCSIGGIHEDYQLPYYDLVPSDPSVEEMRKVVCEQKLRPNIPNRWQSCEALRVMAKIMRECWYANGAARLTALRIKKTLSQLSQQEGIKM

The target of assay [2] is Bone morphogenetic protein receptor type-1A (Mus musculus, UniProt P36895).
Bone morphogenetic protein receptor type-1A, sequence (P36895 whole entry): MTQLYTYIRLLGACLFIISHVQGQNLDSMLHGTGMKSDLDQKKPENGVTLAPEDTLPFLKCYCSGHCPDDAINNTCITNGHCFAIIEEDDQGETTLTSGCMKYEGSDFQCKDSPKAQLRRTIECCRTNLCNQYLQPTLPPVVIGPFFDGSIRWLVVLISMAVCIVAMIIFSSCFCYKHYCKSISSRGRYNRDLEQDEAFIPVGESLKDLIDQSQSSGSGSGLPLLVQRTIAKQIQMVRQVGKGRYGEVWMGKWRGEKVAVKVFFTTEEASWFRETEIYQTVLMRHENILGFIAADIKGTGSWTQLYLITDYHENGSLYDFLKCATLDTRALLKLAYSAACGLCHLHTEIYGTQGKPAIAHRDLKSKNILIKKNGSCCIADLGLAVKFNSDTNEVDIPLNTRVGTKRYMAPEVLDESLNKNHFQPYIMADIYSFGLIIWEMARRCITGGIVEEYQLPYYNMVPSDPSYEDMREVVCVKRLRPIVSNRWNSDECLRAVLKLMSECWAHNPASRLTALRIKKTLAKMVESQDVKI
Assay [3] concerns the target T2, Serine/threonine-protein kinase receptor R3 (Mus musculus, UniProt Q61288).
T2 sequence (Q61288 whole entry): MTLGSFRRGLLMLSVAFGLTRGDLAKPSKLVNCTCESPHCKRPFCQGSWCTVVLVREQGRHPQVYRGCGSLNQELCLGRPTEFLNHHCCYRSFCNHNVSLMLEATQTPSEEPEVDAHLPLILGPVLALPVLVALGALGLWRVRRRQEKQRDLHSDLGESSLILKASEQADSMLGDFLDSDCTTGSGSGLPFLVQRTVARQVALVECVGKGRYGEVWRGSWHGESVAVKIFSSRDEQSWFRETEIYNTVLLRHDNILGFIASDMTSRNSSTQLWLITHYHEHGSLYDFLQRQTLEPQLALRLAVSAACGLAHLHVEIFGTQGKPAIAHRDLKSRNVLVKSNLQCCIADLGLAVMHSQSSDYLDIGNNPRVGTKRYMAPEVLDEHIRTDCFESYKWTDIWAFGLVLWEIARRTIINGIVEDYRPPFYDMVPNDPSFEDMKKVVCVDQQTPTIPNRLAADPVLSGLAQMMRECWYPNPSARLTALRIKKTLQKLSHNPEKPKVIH

Assay [4] addresses T3, Activin receptor type-1B (Mus musculus, UniProt Q61271).
T3 sequence (Q61271 whole entry): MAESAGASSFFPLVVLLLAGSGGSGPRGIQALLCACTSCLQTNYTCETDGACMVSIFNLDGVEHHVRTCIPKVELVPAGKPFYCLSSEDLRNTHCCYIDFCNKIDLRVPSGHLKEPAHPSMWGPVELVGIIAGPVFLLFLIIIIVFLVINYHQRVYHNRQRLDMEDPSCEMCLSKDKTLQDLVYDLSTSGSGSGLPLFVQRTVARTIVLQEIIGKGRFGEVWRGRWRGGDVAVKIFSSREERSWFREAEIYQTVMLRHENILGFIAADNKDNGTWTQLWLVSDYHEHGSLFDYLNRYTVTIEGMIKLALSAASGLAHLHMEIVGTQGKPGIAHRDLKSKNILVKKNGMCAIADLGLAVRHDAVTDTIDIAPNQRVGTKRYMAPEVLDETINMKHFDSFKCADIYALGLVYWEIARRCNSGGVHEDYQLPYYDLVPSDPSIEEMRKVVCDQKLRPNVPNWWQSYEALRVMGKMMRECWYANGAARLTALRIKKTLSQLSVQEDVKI

For assay [5], the target named is T4, Activin receptor type-1 (Mus musculus, UniProt P37172).
T4 sequence (P37172 whole entry): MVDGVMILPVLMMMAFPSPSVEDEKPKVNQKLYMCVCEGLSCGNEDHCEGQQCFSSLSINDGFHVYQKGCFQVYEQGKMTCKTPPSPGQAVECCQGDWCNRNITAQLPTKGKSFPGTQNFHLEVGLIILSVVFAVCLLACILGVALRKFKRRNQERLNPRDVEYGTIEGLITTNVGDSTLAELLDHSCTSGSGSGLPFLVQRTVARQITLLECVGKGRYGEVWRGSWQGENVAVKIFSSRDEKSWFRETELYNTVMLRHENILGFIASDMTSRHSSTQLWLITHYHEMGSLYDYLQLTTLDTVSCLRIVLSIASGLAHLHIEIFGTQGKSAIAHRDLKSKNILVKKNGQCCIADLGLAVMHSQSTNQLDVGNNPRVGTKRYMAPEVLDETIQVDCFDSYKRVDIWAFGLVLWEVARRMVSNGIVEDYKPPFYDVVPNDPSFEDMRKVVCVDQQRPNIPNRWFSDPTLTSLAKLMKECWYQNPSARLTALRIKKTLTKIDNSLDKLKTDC

Five molecules from BindingDB's records for doi:10.1021/cb300655w (Massachusetts Institute of Technology, 2013) can be followed below.

Broadly, the IC50 is the midpoint of a concentration-inhibition curve. The low end stands for greater potency, the high end for weaker potency.

Turning to `c1cc(-c2cnn3cc(-c4ccc(N5CCNCC5)cc4)cnc23)c2cccnc2c1` [LDN-212854], the half-inhibitory concentration (IC50) in assay [1] came out at 9.28 µM; in assay [2], 0.0858 µM; in assay [3], 0.0024 µM; in assay [4] it was 2.13 µM.

With `COc1cc(-c2cc(-c3cccc(O)c3)cnc2N)cc(OC)c1OC` [K02288a], the figures for the IC50 in assay [2] and in assay [3] were 0.0258 µM and 0.00365 µM, respectively.

For the molecule `c1ccc2c(-c3cnn4cc(-c5ccc(N6CCNCC6)cc5)cnc34)ccnc2c1` [LDN-193189], the values for the IC50 in assay [1], in assay [2] and in assay [3] were 0.117 µM, 0.0143 µM and 0.00148 µM, respectively.

For `c1cc(-c2cnn3cc(-c4ccc(OCCN5CCCCC5)cc4)cnc23)ccn1`, the IC50 is 7.83 µM in assay [1], 0.222 µM in assay [2], 0.0195 µM in assay [3] and 3.08 µM in assay [4].

`CC(C)Oc1ccc(-c2cnc3c(-c4ccnc5ccccc45)cnn3c2)cc1` [4-(6-(4-isopropoxyphenyl)pyrazolo[1,5-a]pyrimidin-3-yl)quinoline]: the IC50 turned out to be 5.97 µM in assay [1]; 0.241 µM in assay [2]; 0.0779 µM in assay [3]; 0.0126 µM in assay [5]; 11 µM in assay [4].
